We go through 14 compounds from paper PMC7763843, “Cytochrome P450 Expression and Chemical Metabolic Activity before Full Liver Development in Zebrafish” (Pharmaceuticals, 2020).

The conditions of series [1]: cited from earlier work; for Detection of metabolite of midazolam (neither has been detected): adult zebrafish liver microsomes or embryonic or larval microsomes or homogenates at up to 7 dpf. For orientation: Microsomes from liver hold many membrane-bound enzymes, among them those of drug oxidation.
The subject of another series is zebrafish. The following applies: cited from earlier work.
The subject of series [2] is whole zebrafish embryo or larva. The experiment in a line: Contents of test compound metabolites per whole zebrafish embryo or larva. The following applies: for Ce of caffeine per whole embryo or larva: metabolite experiment (Figure 6A), exposure to caffeine 10 mg/L.
Experimental: (§3) To calculate the content of each compound per one whole zebrafish embryo or larva (i.e., the Ce), we first determined the maximum test solution concentrations that caused neither morphological nor behavioral abnormalities during exposure. […] Beginning at 5 hpf, normal embryos were exposed to the test solution (>1 mL/embryo) in a glass container. The plastic lid of the container was kept closed, and the embryos and larvae were maintained for up to 120 hpf at 28 ± 1 °C on a 14-h light–10-h dark cycle.
Then, the mixture was centrifuged at 20,000× g for 15 min at 10 °C with a refrigerated centrifuge (CR21N, Hitachi Koki). The supernatant was collected in a sampling tube. The extraction procedure was performed twice. The supernatants of two batches were mixed and the mixture was evaporated completely by nitrogen gas spraying. A solution (500 μL) of the same composition as the eluent for each compound was added to the tube, and then the solution was filtered through a Millex-LG membrane filter with a 0.2-μm pore size (Merck). The filtrate was double diluted with a solution of the same composition as the eluent for each compound, and the resulting solution was mixed to prepare the sample for measurement. For 1,7-dimethylxanthine, to standardize the content of the larval matrix, a mixture of larvae in the control or the vehicle control was added to each standard solution in a stepwise concentration to create each calibration curve.
Each 5 μL sample was eluted in a mobile phase of methanol: water = 2:8 at a flow rate of 0.20 mL/min. 1,7-dimethylxanthine was monitored by using an ESI probe. Data were acquired in positive ion mode by using MRM. […]
A calibration curve for each target substance (regression equation by using the least-squares method: Y = aX + b, where Y is the analytical response and X is the concentration of the target substance) was made by using four or five concentrations of standard solution. […] Then, all target substances were quantified by using the absolute calibration curve method and one concentration of standard solution. […]
The next series deals with cyp2r1 mRNA. As for the experimental part: (§1) Embryos were dechorionized, except in the case of those exposed to TCDD due to high transparency. […] 1,7-Dimethylxanthine, 4′-OHDF, 5-OHDF, and 6β-hydroxytestosterone were obtained from Sigma-Aldrich. DMSO was purchased from Nacalai Tesque (Kyoto, Japan).
(§2) Whole-mount in situ hybridization was performed as described previously. Paraformaldehyde-fixed embryos were hybridized with digoxigenin-incorporated antisense RNA probes of CYP subtypes at 65 °C overnight (DIG (digoxigenin) RNA Labeling Kit, Sigma-Aldrich). To obtain the CYP probes, CYP DNAs were amplified by PCR reaction with KOD FX Neo enzyme solution (Toyobo) with the primer sets listed in Table S2. This was followed by subcloning to pTAC2 TA vector (BioDynamics, Tokyo, Japan) and in vitro transcription with SP6 RNA polymerase (New England Biolabs, Ipswich, MA, USA). Following hybridization and washing, the embryos were incubated with anti-DIG antibody conjugated with alkaline phosphatase (Sigma-Aldrich) at 4 °C overnight. The color reaction was performed by incubation in BM Purple substrate or Fast Red (Sigma-Aldrich).

For the next series, the system named is cyp3a65 mRNA. The following applies: in vivo. The procedure: as §1, §2
Series [3] deals with whole zebrafish embryo or larva. In words: Content of test compound per one whole zebrafish embryo or larva (Ce) every 24 hpf. The series is classed as in vivo, Danio rerio. The following applies: mean ± SD, n = 3; for Ce per one whole embryo or larva: 120 hpf, exposure from 5 hpf (caffeine 10 mg/L, diclofenac 3.2 mg/L, testosterone 3.0 mg/L), maximum for caffeine. As for the experimental part: The chorions of embryos were removed with forceps under a microscope before sampling for the Ce measurements. The dechorionated embryos (24 hpf) or the larvae (from 48 hpf onwards) were individually transferred through four beakers (for about 10 s per beaker) containing 500 mL of fresh dechlorinated tap water to remove chemical residues on the body surface. After that step, the embryos or larvae were homogenized with a silicone pestle in a 1.5 mL sampling tube containing a mixed solvent of the same composition as each liquid chromatography eluent to extract the test compound. The dechorionated embryos or the larvae were homogenized to extract the test compound. […] The supernatant was collected in a volumetric flask. The extraction procedure was performed twice, and the supernatants from the two batches were mixed and brought up to a volume of 1 mL with the mixed solvent of the same composition as each liquid chromatography eluent to extract the test compound.
Data were acquired in positive ion mode by using multiple reaction monitoring (MRM).

Series [4] has as its system zebrafish embryos and larvae. The experiment in a line: Maximum test solution concentration causing neither morphological nor behavioral abnormalities. The series is classed as in vivo, Danio rerio. As to conditions: exposure from 5 hpf up to 120 hpf.
Experimental: as §3
Details of series [5]: method as in PMID 11448232, PMID 7714751. As to conditions: cited from earlier work.
In the next series the test system is cyp2n13 mRNA. The following applies: 55 hpf larvae; exposure from 30 hpf; 100 µM rifampicin or phenobarbital. As for the experimental part: as §1, §2
Another series has as its system cyp2y3 mRNA. The following applies: 55 hpf larvae; exposure from 30 hpf; 100 µM rifampicin or phenobarbital. The procedure:
as §1, §2

The subject of series [6] is cyp2n13, 2r1, 2y3, and 3a65. In words: qPCR of CYP subtypes in 55 hpf larvae after inducer exposure. The following applies: 100 µM.
From the text: as §1

Setting [7] is: 55 hpf larvae, exposure from 30 hpf, 1.0 ppb TCDD, 100 µM phenobarbital or rifampicin.

Structures can show the parent of a compound that is named as a salt. Where two headings read alike, the source gives them in different places.

For `OCc1ncc2n1-c1ccc(Cl)cc1C(c1ccccc1F)=NC2` [1-hydroxymidazolam], in series [1], the “Detection of metabolite of midazolam (neither has been detected)” value was “Neither”. As for `COc1ccc2c(c1)[C@@]13CCCC[C@H]1[C@@H](C2)NCC3` [3-Methoxymorphinan], the “Detection of metabolite of dextromethorphan” value in series [1] (adult zebrafish liver microsomes) was “detected”. Take `Cc1ncc2n1-c1ccc(Cl)cc1C(c1ccccc1F)=NC2O` (stereo not drawn) [4-hydroxymidazolam]: the “Detection of metabolite of midazolam (neither has been detected)” value in [1] is “Neither”. With `C[C@]12CC[C@H]3[C@@H](C[C@@H](O)C4=CC(=O)CC[C@@]43C)[C@@H]1CC[C@@H]2O` [6β-hydroxytestosterone], the “Detection of metabolite of testosterone” value in the series on zebrafish (zebrafish larvae at 7 dpf or zebrafish adults) is given as “detected”. In addition, the “Detection of metabolite in embryos or larvae” value in [2] (50 or 120 hpf, during exposure to testosterone) is given as “not detected”. Consider `Clc1cc2c(cc1Cl)Oc1cc(Cl)c(Cl)cc1O2` [TCDD, 2,3,7,8-tetrachlorodibenzo-p-dioxin], for which, in the series on cyp2r1 mRNA (setting [7]), the “cyp2r1 mRNA signal by in situ hybridization (location similar to liver)” value (from here on “cyp2r1 mRNA signal”) is “Positive signals”. In addition, in the series with cyp3a65 mRNA, the “cyp3a65 mRNA signal by in situ hybridization” value was “signal appeared in some”.

As for `Cn1c(=O)c2c(ncn2C)n(C)c1=O` [caffeine], the “Ce per one whole embryo or larva” value in [3] is reported as 4.54 ± 0.10 ng. Further, the “Maximum test solution concentration that caused neither morphological nor behavioral abnormalities during exposure” value in [4] is on record as 10 mg/L. Moreover, the “log Kow” value in [5] was −0.07. The “Ce of caffeine per whole embryo or larva” value in [2] (50 hpf) is reported as 2.69 ± 0.14 ng; in series [2] (120 hpf), 5.15 ± 0.31 ng.

Turning to `COc1ccc2c(c1)[C@]13CCCC[C@@H]1[C@H](C2)N(C)CC3` [dextromethorphan], in series [1] (microsomes from whole embryos or larvae at 5, 24, 48, 72, 96, or 120 hpf), the “Detection of metabolites of the compound” value was “no metabolites of this compound have been detected”. As to `O=C(O)Cc1ccccc1Nc1c(Cl)cccc1Cl` [diclofenac, diclofenac sodium salt], the “Ce per embryo or larva (maximum value)” value in [3] (72 hpf, exposure to 3.2 mg/L from 5 hpf) was found to be 1.64 ± 0.15 ng. For the same compound, in [4], the “Maximum test solution concentration that caused neither morphological nor behavioral abnormalities during exposure” value came to 3.2 mg/L. The “log Kow” value in [5] (pH 7.4) is 1.13. Take `CCOc1ccc(NC(C)=O)cc1` [phenacetin]: in the series with zebrafish (zebrafish 7 dpf incubated with the drug), the “Detection of human CYP1A2-mediated metabolites” value is recorded as “detected”. `CCC1(c2ccccc2)C(=O)NC(=O)NC1=O` [phenobarbital]: the “cyp2N13 mRNA expression by in situ hybridization” value with cyp2n13 mRNA is given as “detected”. Besides, in the series on cyp2r1 mRNA (in vivo), the “cyp2r1 mRNA signal” value is given as “Positive signals”. Further, the “cyp2y3 mRNA by in situ hybridization (liver and intestine locations)” value in the series with cyp2y3 mRNA is listed as “detectable”. For `CO[C@H]1/C=C/O[C@@]2(C)Oc3c(C)c(O)c4c(O)c(c(/C=N/N5CCN(C)CC5)c(O)c4c3C2=O)NC(=O)/C(C)=C\C=C\[C@H](C)[C@H](O)[C@@H](C)[C@@H](O)[C@@H](C)[C@H](OC(C)=O)[C@@H]1C` [rifampicin], the “cyp2N13 mRNA expression by in situ hybridization” value in the series with cyp2n13 mRNA was “detected”. Further, the “cyp2r1 mRNA signal” value in the series with cyp2r1 mRNA (setting [7]) is listed as “Positive signals”. On to `Nc1c2c(nc3ccccc13)CCCC2` [tacrine], for which the “Detection of human CYP1A2-mediated metabolites” value with zebrafish (zebrafish, in vivo) is recorded as “detected”. With `C[C@]12CC[C@H]3[C@@H](CCC4=CC(=O)CC[C@@]43C)[C@@H]1CC[C@@H]2O` [testosterone], the “Ce per embryo or larva (maximum value)” value in series [3] (48 hpf, exposure to 3.0 mg/L from 5 hpf) is listed as 12.8 ± 1.14 ng. Further, the “Ce per one whole embryo or larva” value in [3] is given as 1.43 ± 0.11 ng. In addition, the “Maximum test solution concentration that caused neither morphological nor behavioral abnormalities during exposure” value in [4] was determined as 3.0 mg/L. As for `O=c1cc(-c2ccccc2)oc2ccc3ccccc3c12` [β-naphthoflavone], the “Significant induction of cyp2n13, 2r1, 2y3, and 3a65 by qPCR” value in series [6] is “not recognized”.
